Read-outs that look alike come from different tables or passages of the source.
Assays:
[1] = system: Chk1 and Chk2 phosphorylation in Detroit 562 head and neck cancer cells; test: Western blot after bleomycin, Detroit 562; format: cell-based; settings: 100 nM 24 hours prior to bleomycin (5 μM)
Experimental: Protein expression of Parp, P-Chk1, P-Chk2, and Gapdh (control) was measured at the indicated time points (1, 4, and 8 hours) after bleomycin treatment.
Protein expression was measured at the indicated time points after bleomycin treatment.

[2] = system: NSCLC; test: Phase 2 clinical trial in NSCLC by KRAS, EGFR and ALK mutation status; format: in vivo, human
Experimental: Initial cohorts were defined by mutation status: A) EGFR mutation, KRAS wild-type B) EGFR wild-type, KRAS mutation C) EGFR wild-type, KRAS wild-type (WT). If ≧2/14 patients in A, B or C were progression-free at 16 weeks, enrollment increased to 23 patients for that cohort. Tumor response was assessed every 8 weeks. Cohort D was added to include 35 additional EGFR wild-type and KRAS wild-type patients with adenocarcinoma histology. FISH analysis for ALK translocation, was performed for Cohorts C and D.

[3] = system: HCC70; test: 72 hr viability by CTG, HCC70; format: cell-based; settings: Homo sapiens, HCC70, Basal A
Experimental: Breast cancer is a heterogeneous disease historically broken down into 4 subtypes. Various compounds were tested for their effects in cell viability assays using various breast cancer cell lines. Cellular viability was assessed using the CellTiter-Glo® Luminescent Cell Viability Assay (Promega, Madison, Wis., USA) according to the manufacturer's protocol. […] were seeded into 96-well plates based on optimal growth rates determined empirically for each line. […] CellTiter-Glo® was added (50% v/v) to the cells, and the plates incubated for 10 min prior to luminescent detection in a SpectraMax® Plus 384 microplate reader (Molecular Devices, Sunnyvale, Calif., USA). Data were normalized to percent of control and IC50 values used to determine the sensitivity of each line.

[4] = system: GIST; test: Phase 2 study in gastrointestinal stromal tumors (GIST); format: in vivo, human
Experimental: GIST status was assessed at 8 weeks per RECIST, until progression.

[5] = system: Hsp90 client proteins in AGS gastric cancer cells; test: Western blot of Hsp90 client proteins, AGS; format: cell-based
[6] = system: human KRAS mutant NSCLC tumor xenografts; test: KRAS mutant NSCLC tumor xenografts in vivo; parameters: species or system mouse; settings: single agent
Experimental: Female immunodeficient CD-1 (nude) mice (Charles River Laboratories, Wilmington, Mass.) were maintained in a pathogen-free environment, and all in vivo procedures were approved by the Synta Pharmaceuticals Corp. Institutional Animal Care and Use Committee. A549 NSCLC cells (7.5×10^6) were subcutaneously implanted into the animals. […] Tumor growth inhibition was determined as described previously. See Proia et al, PLoS One. 2011; 6(4):e18552.

[7] = Pharmacokinetics in the Phase 1 combination trial with docetaxel; format: in vivo, human; settings: patients
Experimental: A trial to evaluate three dose-level combinations of docetaxel and the compound of formula (I), administered on a three-week cycle, with the primary objective of determining an optimal dose for future clinical trials was performed. […] The standard of care dose level for docetaxel was 75 mg/m^2. A total of 19 patients received at least one dose of study treatment at the cut-off time. The median number of cycles of treatment was 4, with a range of 1 to 11 cycles of treatment. No prophylactic treatment for neutropenia was used.

[8] = system: Detroit 562 H/N cancer cells; test: Single agent viability assay, Detroit 562, 72 hr; format: cell-based
Text: Head and neck (H/N) cancer refers to a group of biologically similar cancers originating from the upper autodigestive tract. First line therapies include EGFR inhibitors and platins.

[9] = system: solid tumors; test: Phase 2 study in solid tumors, twice-weekly infusion; format: in vivo, human
Text: (§1) Serial PK and pharmacodynamic samples were obtained during cycle 1. Safety assessments included frequency and grade of adverse events (AEs), laboratory parameters and ECG changes.

[10] = Serial PK in patients with solid tumors, twice-weekly infusion; format: in vivo, human
Text: as §1

[11] = system: Hs746T; test: 72 hr viability by Syto60, Hs746T; format: cell-based; settings: Homo sapiens
Experimental: Many of the oncoproteins associated with gastric cancer and Hsp90 client proteins including HER2, MET, RAS and the FGFR family. […] Cells were treated for 72 hr and viability determined by CTG (upper) or Syto60 (lower).

[12] = system: MET, IGF-IR, AKT in MKN45 cells; test: Western blot of Hsp90 client proteins, MKN45; format: cell-based
[13] = system: metastatic breast cancer
Experimental: The primary endpoint of the trial was overall response rate using RECIST 1.1. Patients with HER2+ breast cancer were required to have received prior therapy with trastuzumab. No more than 3 lines of chemotherapy in the metastatic setting were permitted, but there was no limit on prior lines of hormone therapy. Patients were evaluated for response after 2 cycles. The trial used a Simon two-stage design requiring at least 3 responses among the first 22 patients, to allow expansion to a total of 40 patients.

[14] = system: solid tumors; test: Phase I dose escalation study, twice-weekly administration in patients with solid tumors; format: in vivo, human; settings: 41 of 54 enrolled patients assessable; 1-hour infusion 2 times per week, 3 weeks on, 1 week dose-free
Experimental: An open-label Phase 1 dose-escalation study in subjects with solid tumors was performed. […] The first infusion for the first three subjects was staggered by a minimum of 5 days between subjects. This staggered enrollment scheme was followed for the first cohort only.
Subsequent cohorts were originally planned to receive escalating doses of 4, 7, 10, 14, 19, 25, 33, 40 and 48 mg/m^2, provided that the previous dose was well-tolerated during cycle 1 (week 1-4). The dose escalation scheme was updated to 25, 50, 75 and 100 mg/m^2, provided that the previous dose was well-tolerated during cycle 1. Following the completion of enrollment at 50 mg/m^2 twice per week, subsequent cohorts were to be treated at 100 mg/m^2 (100% increase above prior dose) and 120 mg/m^2 (20% increase above prior dose), with further dose increments to be approximately 20% over the previous dose level, until the maximum tolerated dose (MTD) was determined. Enrollment was completed at 100 mg/m^2 and the next doses planned were 120 mg/m^2 and 144 mg/m^2.
There had to be at least three evaluable subjects in a cohort before dose escalation could occur. […] Once a subject experienced a DLT the cohort was expanded to six subjects. If only 1 of 6 subjects experienced a DLT, further dose escalation was allowed. However, if 2 of 3 or 2 of 6 subjects experienced a DLT, dose escalation terminated. […]

Structure (SMILES): CC(C)c1cc(-c2nnc(O)n2-c2ccc3c(ccn3C)c2)c(O)cc1O [compound of formula (I), ganetespib]
- Effect on bleomycin-increased Chk1 and Chk2 phosphorylation [1]: blocked
- Adverse events reported in >20% of patients ([2]; 73 patients, 200 mg/m^2 once weekly for 3 of a 4-wk cycle, generally grade 1-2): diarrhea, fatigue, nausea, anorexia, constipation, and dyspnea
- Objective response rate (CR + PR) ([2]; ALK+ patients, 4/8): 50%
- Best response reported, cohort C ([2]; Cohort C: EGFR wild-type, KRAS wild-type): durable partial response (PR)
- Tolerability ([2]; single agent, 200 mg/m^2 once weekly): well-tolerated in patients with NSCLC at 200 mg/m^2 once weekly without severe liver, ocular, cardiovascular or renal toxicity
- IC50 [3]: 0.114 µM
- Patients with SD≧8 wks ([4]; 23 evaluable patients): 8 patients
- Patients with SD≧16 wks ([4]; 23 evaluable patients): 4 patients
- Tolerability ([4]; once-weekly dosing): well-tolerated in patients with heavily pre-treated advanced GIST, with no evidence of severe liver, ocular, cardiac or renal toxicity
- Effect on B-RAF expression [5]: enhanced B-RAF expression
- Effect on Hsp90 client protein expression [5]: abolished the expression of EGFR, IGF-IR, C-RAF and their down-stream effectors PI3K/AKT and MAPK
- Growth of tumor xenografts [6]: effectively suppressed the growth
- Effect on docetaxel pharmacokinetics [7]: no effect
- Pharmacokinetics alone versus administered prior to docetaxel [7]: pharmacokinetic similarity
- Extent of cell kill after 72 hr exposure [8]: A fraction of cells remained viable
- Tolerability ([9]; twice-weekly): well-tolerated administered twice-weekly
- Response in a patient with metastatic melanoma ([9]; twice-weekly dosing): confirmed durable PR by RECIST
- Distribution [10]: rapid distribution
- IC50 [11]: 0.384 µM
- Effect on MET, IGF-IR and AKT [12]: complete degradation of MET and IGF-IR, followed by inactivation of AKT
- CBR (CR + PR + SD > 6 months) ([13]; ER+/HER2− (N = 6)): 0 patients
- CR ([13]; ER+/HER2− (N = 6)): 0 patients
- ORR ([13]; ER+/HER2− (N = 6)): 0 patients
- PR ([13]; ER+/HER2− (N = 6)): 0 patients
- CBR (CR + PR + SD > 6 months) ([13]; HER2+ (N = 13)): 2 (9%) patients (%)
- CR ([13]; HER2+ (N = 13)): 0 patients
- ORR ([13]; HER2+ (N = 13)): 2 (9%) patients (%)
- PR ([13]; HER2+ (N = 13)): 2 patients
- CBR (CR + PR + SD > 6 months) ([13]; TNBC (N = 3)): 0 patients
- CR ([13]; TNBC (N = 3)): 0 patients
- ORR ([13]; TNBC (N = 3)): 0 patients
- PR ([13]; TNBC (N = 3)): 0 patients
- CBR (CR + PR + SD > 6 months) ([13]; Total (N = 22)): 2 (9%) patients (%)
- CR ([13]; Total (N = 22)): 0 patients
- PR ([13]; Total (N = 22)): 2 (9%) patients (%)
- ORR ([13]; Total (N = 22), 200 mg/m^2 once weekly 3 weeks of 28 day cycle, RECIST 1.1): 2 (9%) patients (%)
- Confirmed partial responses, melanoma [14]: 1 patient
- Confirmed partial responses, triple negative breast cancer [14]: 1 patient

From patent US20140135370A1, “TREATING CANCER WITH AN HSP90 INHIBITORY COMPOUND” (SYNTA PHARMACEUTICALS CORP., priority 2011, published 2014)
